Assay results: PMC6152156 (Molecules : A Journal of Synthetic Chemistry and Natural …, 2017)

Tests used:
BuChE [1] = target: T1, BuChE (Homo sapiens, UniProt P06276); experiment: BuChE kinetic study (Lineweaver-Burk and Dixon plots); assay type: biochemical; conditions: for Ki: Dixon plot, inhibitor 0.3, 1, 3 μM, five substrate concentrations, n = 3; for type of inhibition of BuChE: Lineweaver-Burk plot
T1 construct: BuChE was obtained from human plasma (purchased from Beijing Red Cross Blood Center China); tissue Beijing Red Cross Blood Center China; host or cells: human plasma, diluted 200-fold with 0.05 M PBS
Experimental: (§1) To have an insight into how structure modification affected the inhibitory activities, molecular docking and kinetics studies were performed for DL0410, compounds 6-1 and 7-6. After the docking parameters were set, the crystal poses of donepezil and N-((1-benzylpiperidin-3-yl)methyl)-N-(2-methoxyethyl) naphthalene-2-sulfonamide were first re-docked into the binding site pocket of AChE and BuChE, respectively. Donepezil is a mixed-type inhibitor of AChE used in the palliative treatment of AD [25]. N-((1-benzylpiperidin-3-yl)methyl)-N-(2-methoxyethyl) naphthalene-2-sulfonamide is a potent, selective, and reversible human BuChE inhibitor, which can improve memory, cognitive functions, and learning abilities. The root mean square deviation (RMSD) values between the docking and initial poses were 0.872 and 1.253, respectively, which implied that the docking models built by CDOCKER could reproduce the crystal binding model and were suitable for the AChE and BuChE system. DL0410 and two highly inhibitory compounds (compounds 6-1 and 7-6) were docked to the active pockets of AChE and BuChE. For AChE, these three compounds could dock to TRP86 of CAS via π-Alkyl interaction or electrostatic attraction, near the bottom of the active site gorge, and TRP286 of PAS via π-π stacking interaction, near its entrance (Figure 4). The value of –CDOCKER INTERACTION ENERGY was followed by compound 6-1 > compound 7-6 > DL0410. The dibenzofuran of compound 6-1 formed stronger π-π stacking interaction with TYR341 and TRP286, and the carbonyl formed hydrogen bond with TYR72. In addition, hydrogen bond interaction of compound 7-6 made it high inhibition for AChE. […] There existed more hydrogen bonds for compound 7-6, and a highly electronegative fluorine atom caused its strong interaction with GLY116. Therefore, the fluorine atom substitution and the structure of dibenzofuran made compounds 6-1 and 7-6 different from DL0410. Compound 7-6 formed more hydrogen bonds with AChE and BuChE. The structure of dibenzofuran caused the extension direction of compound 6-1 to change, which was more conducive to forming electrostatic attractive interactions. In silico results were consistent with the kinetics studies of AChE and BuChE. […] The inhibition kinetic data were analyzed by Lineweaver-Burk and Dixon plots. The Lineweaver-Burk plot provides a useful means of distinguishing among competitive inhibition, non-competitive inhibition, and mixed inhibition, whereas the merit of the Dixon plot is that one can expediently determine Ki from the kinetic data. […] The results of the kinetics studies also validated that the three compounds were, indeed, capable of binding to CAS and PAS of AChE/BuChE. The PAS site could […] their catalytic efficiency, which led to high inhibitory effects.
(§2) Figure 6 The Lineweaver-Burk plots of DL0410, compound 6-1 and compound 7-6 on AChE inhibitory activity (A–C). The Lineweaver-Burk plots of DL0410, compound 6-1 and compound 7-6 on BuChE inhibitory activity (D–F). Kinetic analysis of AChE and BuChE was performed by using three effective concentrations of DL0410, compound 6-1 and compound 7-6 (0.1, 0.3, 1 μM for AChE, and 0.3, 1, 3 μM for BuChE) with the incubation of five different substrate concentrations (1.25, 2.5, 5, 10, 20 mM for AChE, and 2, 4, 8, 16, 32 mM for BuChE). […] (n = 3; a = mM^−1; b = min/ΔA).
(§3) Figure 7 Ki values were determined by Dixon plots. […] Figure D–F presented the Dixon plots of DL0410, compound 6-1 and compound 7-6 on BuChE inhibitory activity, respectively. […] (n = 3; b = min/ΔA).
(§4) It is important to determinate the type of inhibition in an effort to understand the mechanism of inhibition and the binding sites of the inhibitor sites. […]

BuChE [2] = target: T1, BuChE; experiment: In vitro BuChE inhibitory assay (Ellman-type, human plasma); assay type: biochemical; conditions: BuChE from human plasma; BuSCh substrate; 60 min, 37 °C; read-out: IC50(μM) BuChE
Experimental: BuChE was obtained from human plasma (purchased from Beijing Red Cross Blood Center China). Before utilization, human plasma was diluted 200-fold with 0.05 M PBS. Five serial dilutions of samples are determined to obtain BuChE inhibitory activity. The BuChE reaction system is similar to the assay above, including 10 μL samples, 40 μL diluted plasma sample, 70 μL 7.5 mM S-butyrylthiocholine (BuSCh), and 80 μL 0.25 mg/mL DTNB. After incubation at 37 °C for 60 min, the absorbance intensity of the system was measured at wavelength 412 nm.

AChE [3] = target: T2, AChE (Rattus norvegicus, UniProt P37136); experiment: AChE kinetic study (Lineweaver-Burk and Dixon plots); assay type: biochemical; conditions: for Ki: Dixon plot, inhibitor 0.1, 0.3, 1 μM, substrate 1.25-20 mM, n = 3; for type of inhibition of AChE: Lineweaver-Burk plot
T2 construct: AChE was derived from the SD rat brains by homogenizing the brain with 20-fold saline solution; from tissue; host or cells: SD rat brain homogenate (supernatant after 800 x g)
Experimental: as §1, §2, §3, §4

AChE [4] = target: T2, AChE; experiment: In vitro AChE inhibitory assay (Ellman's method); assay type: biochemical; conditions: AChE from SD rat brain homogenate; ASCh substrate; 60 min, 37 °C; read-out: IC50(μM) AChE
Experimental: The AChE inhibitory activity of DL0410 derivatives was assessed by determining the hydrolysis product of Acetylthiocholine iodide (ASCh) using the Ellman’s method. 5,5′-Dithiobis (2-nitrobenzoic acid) (DTNB), and the substrate ASCh were purchased from Sigma Aldrich. AChE was derived from the SD rat brains by homogenizing the brain with 20-fold saline solution, and then centrifuged at 800× g for 20 min at 4 °C. To acquire the inhibition of AChE activity, five serial dilutions of samples were measured. A Spectra Max M5 microplate reader (Molecular Devices, Sunnyvale, CA, USA) was utilized for the assay for AChE reaction system with 96-well plates in 0.05 M phosphate-buffered solution (PBS). The reaction system includes 10 μL sample, 20 μL AChE solution, 60 μL 3.75 mM ASCh, and 80 μL 0.25 mg/mL DTNB. It took 60 min at 37 °C for incubation, and the absorbance intensity of AChE reaction system was quantified at 412 nm.

APP/PS1 transgenic mice = tested on: APP/PS1 transgenic mice; design: method as in PMID 26476132; conditions: cited from earlier work
Aβ-treated mice = tested on: Aβ-treated mice; design: method as in PMID 27498773; conditions: Aβ-treated mice model; cited from earlier work
APPsw-SY5Y cells = conditions: Akt/JNK signaling pathway; cited from earlier work

T1 sequence (P06276 29-602): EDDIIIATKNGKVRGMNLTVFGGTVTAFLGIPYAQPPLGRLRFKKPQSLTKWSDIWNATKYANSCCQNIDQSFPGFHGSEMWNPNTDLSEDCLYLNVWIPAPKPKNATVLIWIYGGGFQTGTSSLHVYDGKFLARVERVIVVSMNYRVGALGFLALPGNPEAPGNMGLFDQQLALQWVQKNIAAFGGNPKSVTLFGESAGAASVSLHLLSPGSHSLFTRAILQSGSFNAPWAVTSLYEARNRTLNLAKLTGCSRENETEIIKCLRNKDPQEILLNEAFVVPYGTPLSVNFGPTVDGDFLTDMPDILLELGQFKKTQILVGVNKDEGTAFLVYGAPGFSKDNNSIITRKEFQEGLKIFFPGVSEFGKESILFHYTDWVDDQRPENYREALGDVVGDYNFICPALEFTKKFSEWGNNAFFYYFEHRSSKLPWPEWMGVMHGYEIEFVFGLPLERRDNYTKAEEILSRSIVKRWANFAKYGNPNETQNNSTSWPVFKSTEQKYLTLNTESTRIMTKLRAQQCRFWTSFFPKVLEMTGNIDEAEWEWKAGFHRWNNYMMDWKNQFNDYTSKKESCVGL
T2 sequence (P37136 32-614): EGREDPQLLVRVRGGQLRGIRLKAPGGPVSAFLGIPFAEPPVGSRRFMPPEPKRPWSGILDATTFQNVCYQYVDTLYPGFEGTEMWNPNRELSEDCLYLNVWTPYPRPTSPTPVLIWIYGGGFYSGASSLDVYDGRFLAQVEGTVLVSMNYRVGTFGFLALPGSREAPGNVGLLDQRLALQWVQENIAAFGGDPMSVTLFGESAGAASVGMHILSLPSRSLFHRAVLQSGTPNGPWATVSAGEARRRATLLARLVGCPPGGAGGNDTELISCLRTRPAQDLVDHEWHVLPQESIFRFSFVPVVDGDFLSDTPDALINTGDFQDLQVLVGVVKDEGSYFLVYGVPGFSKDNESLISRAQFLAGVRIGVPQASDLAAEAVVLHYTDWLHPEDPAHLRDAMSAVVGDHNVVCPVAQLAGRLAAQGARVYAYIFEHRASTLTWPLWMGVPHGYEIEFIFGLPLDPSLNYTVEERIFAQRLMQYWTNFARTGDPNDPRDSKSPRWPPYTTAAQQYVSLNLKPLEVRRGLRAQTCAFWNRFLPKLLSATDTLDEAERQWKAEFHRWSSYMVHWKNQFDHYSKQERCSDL

Row | Structure (SMILES) | Ki (BuChE [1]) | type of inhibition of BuChE (BuChE [1]) | IC50 (BuChE [2]) | Ki (AChE [3]) | type of inhibition of AChE (AChE [3]) | IC50 (AChE [4]) | learning and memory dysfunction (APP/PS1 transgenic mice) | Aβ deposits in cerebral cortices (Aβ-treated mice) | neuronal protection (APPsw-SY5Y cells)
1 | O=C(CCN1CCCCC1)c1ccc(-c2ccc(C(=O)CCN3CCCCC3)cc2F)cc1 [Compound 7-6] | 1630 ± 180 nM | mixed-type | 0.44 µM | 550 ± 200 nM | mixed-type | 0.03 µM | – | – | –
2 | O=C(CCN1CCCCC1)c1ccc2oc3ccc(C(=O)CCN4CCCCC4)cc3c2c1 [Compound 6-1] | 740 ± 160 nM | mixed-type | 0.61 µM | 420 ± 40 nM | mixed-type | 0.06 µM | – | – | –
3 | O=C(CCN1CCCCC1)c1ccc(-c2ccc(C(=O)CCN3CCCCC3)cc2)cc1 [Compound 1-1] | 1810 ± 80 nM | mixed-type | – | 1650 ± 140 nM | mixed-type | – | improved learning and memory dysfunction | reduced Aβ deposits in cerebral cortices | exerted neuronal protection
